Laboratory results: patent US20240285808A1, “MOLECULAR PROBES FOR IN VIVO DETECTION OF ALDEHYDES” (The General Hospital Corporation, priority 2021, published 2024)

Tests used:
[1] = tested on: liver of CCl4 injured mice; assay type: in vivo, mouse; settings: CCl4 injured mice
Method: CCl4 Liver Fibrosis Model:
Male C57BL/6 mice (Charles River Laboratories, Wilmington, MA) were treated with carbon tetrachloride for 12 weeks (0.1 ml of 20% CCl4 in olive oil the first week, 30% the second week, and 40% from weeks 3-12) by oral gavage, 2-3 times per week. Control mice were fed vehicle (olive oil) only.
A total of 53 C57BL/6 mice were included to study CCl4 induced hepatic fibrosis: • A. CCl4 for 12 weeks (n=20). Each mouse was imaged with probe 1 and then imaged again 24 hours later with probe 2. Probe 1 and Probe 2 were randomly chosen from GdDOTA, GdCHyd, Mn-12, Gd-9 and Gd-10. • B. Vehicle treated control (n=20). Each mouse was imaged with probe 1 and then imaged again 24 hours later with probe 2. Probe 1 and Probe 2 were randomly chosen from GdDOTA, Mn-12, GdCHyd, Gd-9, Gd-10. • C. CCl4 for 12 weeks (n=3, another 3 pair-wise comparison have been done in group A). Each mouse was imaged with probe 1 and then imaged again 24 hours later with probe 2. […] Each mouse was imaged with probe 1 and then imaged again 24 hours later with probe 2. Probe 1 and Probe 2 were randomly choosing from Gd-9 and Gd-10. • E. CCl4 for 12 weeks (n=3). Each mouse was imaged with Gd-9. After 24 hours, the same mouse was first injected with 1000 μmol/kg of Yb-9 and then injected with 100 μmol/kg of Gd-9 15 min after the Yb-9 injection.
Animals were anesthetized with isoflurane (1-2%) and placed in a specially designed cradle with body temperature maintained at 37° C. The inhaled isoflurane level was adjusted to maintain a respiration rate of 60±5 breaths per minute. The tail vein was cannulated for intravenous (i.v.) delivery of the contrast agent while the animal was positioned in the scanner. Imaging was performed at 4.7 T using a small bore animal scanner with a custom-built volume coil. Mice were imaged with a dose of 100 μmol/kg from 30 mM stock solution of Gd or Mn complex.
For mice liver imaging, a series of baseline images (3D T1 weighted fast low angle shot magnetic resonance imaging (FLASH)) were first acquired (repetition time/echo time=15/2 ms; flip angle, 30°; field of view, 48×30 mm^2; matrix size, […]; slice thickness, 0.25 mm; acquisition time, 3 minutes 20 seconds), then a bolus of Gd or Mn complex was administered i.v. and imaging performed for a period of 45 min p.i. with the repetition acquisition of 3D T1 weighted FLASH sequences. Following the imaging session, animals were sacrificed (75 min p.i.) and liver tissue was subjected to histopathologic analysis.
For liver imaging analysis, a region of interest (ROI) was manually traced encompassing the liver parenchyma while avoiding major blood vessels. A second ROI was placed on the dorsal muscle visible in the same image slice to quantify the signal intensity in the muscle for comparison. Seven ROIs were placed in the field of view without any tissue (air) to measure the variation in background signal. More than 20 axial slices per mouse across the entire liver were analyzed in this fashion. […] Contrast to noise ratio (CNR) was calculated by measuring the difference in signal intensity (SI) between liver and muscle and normalizing to the standard deviation of the signal in the air, eq 21. ΔCNR was calculated by subtracting CNR measured prior to probe injection (CNRPre) from CNR measured after injection (CNRPost), eq 22. […]

[2] = tested on: lungs of bleomycin-injured mice; test: PET probe lung uptake in naïve and bleomycin-injured mice (gamma counter); assay type: in vivo, mouse; settings: 90 min post injection; for Lung uptake, Bleo: 14 days post bleomycin injury; for Lung uptake, Naïve: naïve mice
Method: C57Bl/6 adult male mice at 8 weeks of age (Jackson Laboratories, Barr Harbor, ME) received a single intratracheal dose of bleomycin, 1 units/kg body weight (50 μL total volume) (Fresenius Kabi, Lake Zurich, Il) as previously described in Desogere, P., et al. Optimization of a Collagen-Targeted PET Probe for Molecular Imaging of Pulmonary Fibrosis. J Nuc Med 58, 1991-1996 (2017).
Imaging and Biodistribution Study for Selectivity of Allysine-Reactive Probes In Vivo:
(§1) Bleomycin-injured mice at 14 days after injury were sedated and then injected with Compound 19, Compound 20, Gd-CHyd (Akam, E. A., et al. Improving the reactivity of hydrazine-bearing MRI probes for in vivo imaging of lung fibrogenesis. Chemical Science 11, 224-231 (2020)) formulated to contain an equal concentration of Eu-DOTA as a non-binding control probe. Animals were then euthanized at 30 minutes after injection. The lungs were harvested separately, along with blood, tail and liver. Each sample was analyzed by ICP-MS for gadolinium and europium content, and the lungs were also assessed for hydroxyproline content. Selectivity is reported as the ratio of Gd to Eu. All animals were dosed via tail vein injection at 100 nmol/g body weight from 30 mM solutions of gadolinium probes with 30 mM Eu-DOTA as determined by ICP-MS. For PET probes, Compounds 1-8 were radiolabeled with either ^68Ga or ^64Cu and the dose was delivered as a bolus injection through tail vein. Animals were euthanized 90 min post injection and their organs and tissues were harvested and counted using a gamma counter. For an imaging study with a PET tracer, animals were injected inside PET/MRI scanner and scanned dynamically for 60 min under anesthesia. The animals were euthanized 90 min post injection and their organs and tissues were counted using a gamma counter. The biodistribution of Mn-15, Mn-16, Mn-17, and Mn-18 was determined by injecting a mixture of ^52/nat complex into naïve mice and activity in each tissue were measured 24 hours post injection.

[3] = tested on: lungs of bleomycin-injured mice; test: ^68Ga-7 PET/MRI imaging and organ counts in bleomycin-injured and naïve mice; assay type: in vivo, mouse; settings: for probe uptake in lungs, PET scans: 55 min p.i.; for probe uptake in lungs, organ counts: 90 min p.i.
Method: as §1
Probe ^68Ga-7 was synthesized in 5 steps. Male C57BL/6 mice were intratracheally instilled with bleomycin (1.2 U/kg) and imaged after 14 days when allysine levels peak in the lung. Bleomycin injured mice or age-matched controls were placed in a micro-PET/MRI scanner and administered ^68Ga-7 as a bolus via the lateral tail vein and dynamically imaged for 60 minute. At 90 min p.i. animals were euthanized, and their organs were harvested for gamma counting. After gamma counting, lungs were flash-frozen and later analyzed for hydroxyproline (total collagen, fibrosis measure) and allysine content.

[4] = biological target: T1, BSA-ALD (oxidized bovine serum albumin containing allysine aldehyde groups) (Bos taurus, UniProt P02769); test: Relaxivity measurements with BSA-Ald; assay type: binding; settings: 1.4 T, 37° C., BSA-Ald 10 mg/mL
T1 construct: made in house; host or cells: no expression host: BSA oxidised chemically with sodium ascorbate, ferric chloride and H2O2, then desalted on PD-10
T1 sequence (P02769 25-607): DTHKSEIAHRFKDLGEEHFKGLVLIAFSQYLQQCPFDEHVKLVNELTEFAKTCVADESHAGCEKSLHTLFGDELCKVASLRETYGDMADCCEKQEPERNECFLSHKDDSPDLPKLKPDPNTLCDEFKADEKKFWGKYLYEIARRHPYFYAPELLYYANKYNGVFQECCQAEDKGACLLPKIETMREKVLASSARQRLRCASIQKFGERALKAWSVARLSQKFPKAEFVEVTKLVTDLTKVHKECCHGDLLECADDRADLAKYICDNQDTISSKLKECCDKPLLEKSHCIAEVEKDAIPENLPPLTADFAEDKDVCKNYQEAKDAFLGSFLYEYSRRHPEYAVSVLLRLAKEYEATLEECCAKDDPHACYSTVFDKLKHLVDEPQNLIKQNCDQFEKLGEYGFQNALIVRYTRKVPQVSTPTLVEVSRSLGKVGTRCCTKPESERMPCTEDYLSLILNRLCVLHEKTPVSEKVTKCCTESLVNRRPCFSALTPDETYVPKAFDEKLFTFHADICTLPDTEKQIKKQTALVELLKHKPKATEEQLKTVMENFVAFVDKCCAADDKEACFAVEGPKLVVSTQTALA
Method: Preparation of Allysine Containing Bovine Serum Albumin, BSA-ALD:
To a solution of bovine serum albumin (BSA) (100 mg) dissolved in phosphate buffered saline (4 mL, pH 7.4, 0.25 mM), sodium ascorbate (20 mg), ferric chloride (120 μL, 10 mM) and 20 μL H2O2 (30% w) were added. The reaction was stirred at 37° C. for 24 hours, and sodium ascorbate (20 mg) was added repeatedly every 8 hours. After the reaction, protein was purified using PD-10 Sephadex G25 desalting columns (GE Healthcare), eluted with PBS. Protein concentration was assessed using the ‘BCA Protein Assay Kit’ (Thermo Scientific). Protein carbonyl concentration was determined by ‘Protein Carbonyl Content Assay Kit’ (Sigmal-Aldrich).
Alternatively, preparation of BSA^Ald and binding of Gd^3+ probe to protein was carried out according to modified procedures. To a solution of bovine serum albumin (BSA) (100 mg) dissolved in phosphate buffered saline (4 mL, pH 7.4, 0.25 mM) was added sodium ascorbate (20 mg), ferric chloride (120 μL, 10 mM) and 20 μL H2O2 (30% w). The reaction was stirred at 37° C. for 24 h, and sodium ascorbate (20 mg) was added repeatedly every 8 h. After 24 h, the protein was purified using PD-10 Sephadex G25 desalting columns (GE Healthcare), eluted with PBS. Protein concentration was assessed using the ‘Micro BCA Protein Assay Kit’ (Thermo Scientific, 23235). Protein carbonyl concentration was determined by ‘Protein Carbonyl Content Assay Kit’ (Sigma-Aldrich, MAK094-1KT). […] The protein solutions were kept at a concentration of 20 mg/mL for further use.
(§2) BSA-ALD (10 mg/mL) or BSA (10 mg/mL) were treated for 24 hours at 37° C. with the corresponding Gd or Mn complex at a range of concentrations (0.01-0.2 mM), with a total volume of 300 μL maintained for all samples. After 24 hours, an aliquot of the solution (50 μL) was used for longitudinal (T1) relaxation measurements, recorded using a Bruker mq60 Minispec at 1.41 T and 37° C. Longitudinal (T1) relaxation times were measured via an inversion recovery experiment using 10 inversions of duration ranging between 0.05×T1 and 10×T1. Solutions (concentration range: 0.1 mM-1.0 mM) in PBS were run in parallel. To measure the relaxivity of BSA-bound species, sodium cyanoborohydride (10 mg) was added to the solution to irreversibly bind the probe to the protein. After a further 2h incubation at 37° C., protein-bound and protein-free solutions were separated by ultrafiltration. Then 200 μL PBS was added to the residue to dissolve the protein. Longitudinal (T1) relaxation times for the bounded species were measured using a Bruker mq60 Minispec at 1.41 T and 37° C. After the measurement, concentration of corresponding metal ion (Gd/Mn) in the residue and filter were both determined using an Agilent 8800 ICP-MS system. Relaxivity (r1) was determined from the slope of a plot of 1/T1 vs metal concentration for 5 concentrations.

[5] = Relaxivity measurements in PBS; assay type: physicochemical; settings: 1.4 T, 37° C.
Method: as §2

[6] = biological target: bovine serum albumin (BSA) (Bos taurus, UniProt P02769); test: Relaxivity measurements with BSA; assay type: binding; settings: 1.4 T, 37° C., BSA 10 mg/mL
Chain of bovine serum albumin (BSA) (P02769 25-607): as above
Method: as §2

In the case of `NN1CCN(C(=O)CCC(C(=O)[O-])N2CCN(CC(=O)[O-])CCN(CC(=O)[O-])CCN(C(CCC(=O)N3CCN(N)CC3)C(=O)[O-])CC2)CC1.[Yb+3]` (stereo not shown) [Yb-9], the “blocking of Gd-9 liver MRI enhancement” value ([1]; 10-fold dose (1000 μmol/kg) 15 minutes before Gd-9) is reported as “completely eliminated liver MRI enhancement with Gd-9”.
In the case of `NC(Cn1cccc1)C(=O)NCCOCCOCCOCCNC(=O)CN1CCN(CC(=O)[O-])CCN(CC(=O)[O-])CC1.[64Cu+2]` (stereo not shown) [^64Cu-2], the “Lung uptake, Bleo” value [2] is reported as 0.42 % ID/g and the “Lung uptake, Naïve” value [2] is reported as 0.26 % ID/g.
In the case of `O=C([O-])CN1CCN(CC(=O)[O-])CCN(CC(=O)NCCOCCOCCOCCNC(=O)CN2C(=O)CSC2=S)CC1.[64Cu+2]` [^64Cu-4], the “Lung uptake, Bleo” value [2] is reported as 0.66 % ID/g and the “Lung uptake, Naïve” value [2] is reported as 0.38 % ID/g.
With `NN1CCN(C(=O)CCOCCOCCOCCOCCNC(=O)CN2CCN(CC(=O)[O-])CCN(CC(=O)[O-])CC2)CC1.[68Ga+3]` [^68Ga-1] the “Lung uptake, Bleo” value [2] was 0.99 % ID/g and the “Lung uptake, Naïve” value [2] was 0.27 % ID/g.
For `NC(Cn1cccc1)C(=O)NCCOCCOCCOCCNC(=O)CN1CCN(CC(=O)[O-])CCN(CC(=O)[O-])CC1.[68Ga+3]` (stereo not shown) [^68Ga-2], the “Lung uptake, Bleo” value [2] was 0.96 % ID/g and the “Lung uptake, Naïve” value [2] was 0.45 % ID/g.
In the case of `Cc1cc(O)n(CC(=O)NCCOCCOCCOCCNC(=O)CN2CCN(CC(=O)[O-])CCN(CC(=O)[O-])CC2)n1.[68Ga+3]` [^68Ga-3], the “Lung uptake, Bleo” value [2] is reported as 2.13 % ID/g and the “Lung uptake, Naïve” value [2] is reported as 0.82 % ID/g.
With `O=C([O-])CN1CCN(CC(=O)[O-])CCN(CC(=O)NCCOCCOCCOCCNC(=O)CN2C(=O)CSC2=S)CC1.[68Ga+3]` [^68Ga-4] the “Lung uptake, Bleo” value [2] was 0.61 % ID/g and the “Lung uptake, Naïve” value [2] was 0.24 % ID/g.
With `NNC(=O)C(N)CCC(=O)NCCOCCOCCOCCNC(=O)CN1CCN(CC(=O)[O-])CCN(CC(=O)[O-])CC1.[68Ga+3]` (stereo not shown) [^68Ga-5] the “Lung uptake, Bleo” value [2] was 0.88 % ID/g and the “Lung uptake, Naïve” value [2] was 0.30 % ID/g.
With `CNCCC1=NN(CC(=O)NCCOCCOCCOCCNC(=O)CN2CCN(CC(=O)[O-])CCN(CC(=O)[O-])CC2)C(=O)C1.[68Ga+3]` [^68Ga-6] the “Lung uptake, Bleo” value [2] was 1.32 % ID/g and the “Lung uptake, Naïve” value [2] was 0.84 % ID/g.
For `NNC(CCC(=O)NCCOCCOCCOCCNC(=O)CN1CCN(CC(=O)[O-])CCN(CC(=O)[O-])CC1)C(=O)O.[68Ga+3]` (stereo not shown) [^68Ga-7], the “probe uptake in lungs, PET scans” value ([3]; Bleomycin injured mice (n = 5)) was 0.51 % ID/cc, the “probe uptake in lungs, organ counts” value ([3]; Bleomycin injured mice (n = 5)) was 2.65 % ID/g and the “probe uptake in lungs, PET scans” value ([3]; Naïve mice (n = 4)) was 0.23 % ID/cc. The “probe uptake in lungs, organ counts” value ([3]; Naïve mice (n = 4)) was 0.886 % ID/g, the “uptake in bleomycin injured lung compared to ^68Ga-NODAGA-indole” value ([3]; mouse, in vivo) was “twice the uptake” and the “blood clearance and elimination” value ([3]; naïve animal) was “rapid blood clearance”.
With GdDOTA [reference compound] the “r1, +BSA-Ald” value [4] was 4.0 mM⁻¹ s⁻¹, the “r1, PBS” value [5] was 4.0 mM⁻¹ s⁻¹ and the “liver enhancement” value ([1]; 45 min p.i.) was “no significant liver enhancement”. For the same compound, the “ΔCNR (liver to muscle)” value ([1]; 45 min post injection, 100 μmol/kg i.v., group mean) was 0.1 ± 0.2 and the “r1, +BSA” value [6] was 4.0 mM⁻¹ s⁻¹.
